Columns and labels:
Format in all cases: in vivo
[1] = test system: soybean (Glycine max L., var. Pella 86, SOY); experiment: Post-emerge greenhouse test, crop damage rating; settings: 14 days after application
Summary of the method: (§1)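 Plants at the 2-3 leaf stage, sown 8-21 days earlier, were track-sprayed post-emergence with compound in acetone plus 0.25% v/v non-ionic surfactant at 63-1000 g ai/ha (187 l/ha). Damage was rated at 14 days on a 0-100 scale (0 none, 100 all plants dead), for both crop injury and weed control.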

[2] = test system: upland rice (Oryza sp., var.Tebonnet, RICE); experiment: Pre-emerge greenhouse test, crop damage rating; settings: 14 days after application, rating scale 0-100
Summary of the method: (§2)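 Seeds sown in sandy loam one day before track-sprayer application of acetone solutions at 125–1000 g ai/ha (187 l/ha), then surface-watered to incorporate and bottom-watered. Injury scored visually at 14 days on a 0–100 scale (0 no damage, 100 complete death).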

[3] = test system: field corn (Zea mays L., var. Dekalb 535, CORN); experiment: Pre-emerge greenhouse test, crop damage rating; settings: 14 days after application, rating scale 0-100
Summary of the method: as §2

[4] = test system: redroot pigweed (Amaranthus retroflexus, AMARE); experiment: Pre-emerge greenhouse herbicide test, phytotoxicity rating; settings: 14 days after application, rating scale 0-100
Summary of the method: as §2

[5] = test system: green foxtail (Setaria viridis, SETVI); experiment: as above; settings: 14 days after application, rating scale 0-100
Summary of the method: as §2

[6] = test system: barnyardgrass (Echinochloa crusgalli, ECHCG); experiment: as above; settings: 14 days after application, rating scale 0-100
Summary of the method: as §2

[7] = test system: Johnsongrass (Sorghum halepense, SORHA); experiment: as above; settings: 14 days after application, rating scale 0-100
Summary of the method: as §2

[8] = test system: sicklepod (Cassia obtusifolia, CASOB); experiment: as above; settings: 14 days after application, rating scale 0-100
Summary of the method: as §2

[9] = test system: common ragweed (Ambrosia artemisiifolia L., AMBEL); experiment: as above; settings: 14 days after application, rating scale 0-100
Summary of the method: as §2

[10] = test system: lambsquarters (Chenopodium album, CHEAL); experiment: as above; settings: 14 days after application, rating scale 0-100
Summary of the method: as §2

[11] = test system: velvetleaf (Abutilon theophrasti, ABUTH); experiment: as above; settings: 14 days after application, rating scale 0-100
Summary of the method: as §2

[12] = test system: large crabgrass (Digitaria sanguinalis, DIGSA); experiment: as above; settings: 14 days after application, rating scale 0-100
Summary of the method: as §2

[13] = test system: ivyleaf morningglory (Ipomoea hederacea, IPOHE); experiment: as above; settings: 14 days after application, rating scale 0-100
Summary of the method: as §2

[14] = test system: common ragweed (Ambrosia artemisiifolia L., AMBEL); experiment: Post-emerge greenhouse herbicide test, phytotoxicity rating; settings: 14 days after application
Summary of the method: as §1

[15] = test system: soybean (Glycine max L., var. Pella 86, SOY); experiment: Pre-emerge greenhouse test, crop damage rating; settings: 14 days after application, rating scale 0-100
Summary of the method: as §2

[16] = test system: upland rice (Oryza sp., var.Tebonnet, RICE); experiment: Post-emerge greenhouse test, crop damage rating; settings: 14 days after application
Summary of the method: as §1

[17] = test system: field corn (Zea mays L., var. Dekalb 535, CORN); experiment: Post-emerge greenhouse test, crop damage rating; settings: 14 days after application
Summary of the method: as §1

[18] = test system: redroot pigweed (Amaranthus retroflexus, AMARE); experiment: Post-emerge greenhouse herbicide test, phytotoxicity rating; settings: 14 days after application
Summary of the method: as §1

[19] = test system: green foxtail (Setaria viridis, SETVI); experiment: as above; settings: 14 days after application
Summary of the method: as §1

[20] = test system: barnyardgrass (Echinochloa crusgalli, ECHCG); experiment: as above; settings: 14 days after application
Summary of the method: as §1

[21] = test system: Johnsongrass (Sorghum halepense, SORHA); experiment: as above; settings: 14 days after application
Summary of the method: as §1

[22] = test system: lambsquarters (Chenopodium album, CHEAL); experiment: as above; settings: 14 days after application
Summary of the method: as §1

[23] = test system: velvetleaf (Abutilon theophrasti, ABUTH); experiment: as above; settings: 14 days after application
Summary of the method: as §1

[24] = test system: large crabgrass (Digitaria sanguinalis, DIGSA); experiment: as above; settings: 14 days after application
Summary of the method: as §1

[25] = test system: ivyleaf morningglory (Ipomoea hederacea, IPOHE); experiment: as above; settings: 14 days after application
Summary of the method: as §1

SMILES: N#Cc1ccccc1Oc1cc(-n2c(=O)n3n(c2=S)CCCC3)c(F)cc1Cl [Compound 8-7]
- SOY crop damage rating (0-100) ([1]; 63 g al/ha): 20
- SOY crop damage rating (0-100) ([1]; 500 g al/ha): 70
- crop damage rating RICE ([2]; 125 g ai/ha): 20
- crop damage rating RICE ([2]; 500 g ai/ha): 50
- crop damage rating CORN ([3]; 125 g ai/ha): 0
- crop damage rating CORN ([3]; 500 g ai/ha): 10
- phytotoxicity rating AMARE ([4]; 125 g ai/ha): 90
- phytotoxicity rating AMARE ([4]; 500 g ai/ha): 100
- phytotoxicity rating SETVI ([5]; 125 g ai/ha): 70
- phytotoxicity rating SETVI ([5]; 500 g ai/ha): 90
- phytotoxicity rating ECHCG ([6]; 125 g ai/ha): 100
- phytotoxicity rating ECHCG ([6]; 500 g ai/ha): 100
- phytotoxicity rating SORHA ([7]; 125 g ai/ha): 20
- phytotoxicity rating SORHA ([7]; 500 g ai/ha): 70
- phytotoxicity rating CASOB ([8]; 125 g ai/ha): 70
- phytotoxicity rating CASOB ([8]; 500 g ai/ha): 100
- phytotoxicity rating AMBEL ([9]; 125 g ai/ha): 70
- phytotoxicity rating AMBEL ([9]; 500 g ai/ha): 100
- phytotoxicity rating CHEAL ([10]; 125 g ai/ha): 100
- phytotoxicity rating CHEAL ([10]; 500 g ai/ha): 100
- phytotoxicity rating ABUTH ([11]; 125 g ai/ha): 100
- phytotoxicity rating ABUTH ([11]; 500 g ai/ha): 100
- phytotoxicity rating DIGSA ([12]; 125 g ai/ha): 60
- phytotoxicity rating DIGSA ([12]; 500 g ai/ha): 99
- phytotoxicity rating IPOHE ([13]; 125 g ai/ha): 30
- phytotoxicity rating IPOHE ([13]; 500 g ai/ha): 100
- AMBEL phytotoxicity rating (0-100) ([14]; 63 g al/ha): 60
- AMBEL phytotoxicity rating (0-100) ([14]; 500 g al/ha): 80
- crop damage rating SOY ([15]; 125 g ai/ha): 0
- crop damage rating SOY ([15]; 500 g ai/ha): 20
- RICE crop damage rating (0-100) ([16]; 63 g al/ha): 10
- RICE crop damage rating (0-100) ([16]; 500 g al/ha): 50
- CORN crop damage rating (0-100) ([17]; 63 g al/ha): 20
- CORN crop damage rating (0-100) ([17]; 500 g al/ha): 0
- AMARE phytotoxicity rating (0-100) ([18]; 63 g al/ha): 100
- AMARE phytotoxicity rating (0-100) ([18]; 500 g al/ha): 100
- SETVI phytotoxicity rating (0-100) ([19]; 63 g al/ha): 0
- SETVI phytotoxicity rating (0-100) ([19]; 500 g al/ha): 0
- ECHCG phytotoxicity rating (0-100) ([20]; 63 g al/ha): 0
- ECHCG phytotoxicity rating (0-100) ([20]; 500 g al/ha): 20
- SORHA phytotoxicity rating (0-100) ([21]; 63 g al/ha): 0
- SORHA phytotoxicity rating (0-100) ([21]; 500 g al/ha): 70
- CHEAL phytotoxicity rating (0-100) ([22]; 63 g al/ha): 90
- CHEAL phytotoxicity rating (0-100) ([22]; 500 g al/ha): 100
- ABUTH phytotoxicity rating (0-100) ([23]; 63 g al/ha): 100
- ABUTH phytotoxicity rating (0-100) ([23]; 500 g al/ha): 100
- DIGSA phytotoxicity rating (0-100) ([24]; 63 g al/ha): 0
- DIGSA phytotoxicity rating (0-100) ([24]; 500 g al/ha): 50
- IPOHE phytotoxicity rating (0-100) ([25]; 63 g al/ha): 100
- IPOHE phytotoxicity rating (0-100) ([25]; 500 g al/ha): 100

SMILES: CCOC(=O)C(C)Oc1ccc(Oc2cc(-n3c(=O)n4n(c3=S)CCCC4)c(F)cc2Cl)cc1 (stereo not shown) [Compound 8-11]
- SOY crop damage rating (0-100) ([1]; 63 g al/ha): 90
- SOY crop damage rating (0-100) ([1]; 500 g al/ha): 100
- crop damage rating RICE ([2]; 125 g ai/ha): 50
- crop damage rating RICE ([2]; 500 g ai/ha): 80
- crop damage rating CORN ([3]; 125 g ai/ha): 0
- crop damage rating CORN ([3]; 500 g ai/ha): 0
- phytotoxicity rating AMARE ([4]; 125 g ai/ha): 100
- phytotoxicity rating AMARE ([4]; 500 g ai/ha): 100
- phytotoxicity rating SETVI ([5]; 125 g ai/ha): 90
- phytotoxicity rating SETVI ([5]; 500 g ai/ha): 100
- phytotoxicity rating ECHCG ([6]; 125 g ai/ha): 60
- phytotoxicity rating ECHCG ([6]; 500 g ai/ha): 70
- phytotoxicity rating SORHA ([7]; 125 g ai/ha): 70
- phytotoxicity rating SORHA ([7]; 500 g ai/ha): 40
- phytotoxicity rating CASOB ([8]; 125 g ai/ha): 70
- phytotoxicity rating CASOB ([8]; 500 g ai/ha): 60
- phytotoxicity rating AMBEL ([9]; 125 g ai/ha): 95
- phytotoxicity rating AMBEL ([9]; 500 g ai/ha): 100
- phytotoxicity rating CHEAL ([10]; 125 g ai/ha): 100
- phytotoxicity rating CHEAL ([10]; 500 g ai/ha): 100
- phytotoxicity rating ABUTH ([11]; 125 g ai/ha): 100
- phytotoxicity rating ABUTH ([11]; 500 g ai/ha): 100
- phytotoxicity rating DIGSA ([12]; 125 g ai/ha): 20
- phytotoxicity rating DIGSA ([12]; 500 g ai/ha): 80
- phytotoxicity rating IPOHE ([13]; 125 g ai/ha): 70
- phytotoxicity rating IPOHE ([13]; 500 g ai/ha): 100
- AMBEL phytotoxicity rating (0-100) ([14]; 63 g al/ha): 100
- AMBEL phytotoxicity rating (0-100) ([14]; 500 g al/ha): 100
- crop damage rating SOY ([15]; 125 g ai/ha): 20
- crop damage rating SOY ([15]; 500 g ai/ha): 30
- RICE crop damage rating (0-100) ([16]; 63 g al/ha): 40
- RICE crop damage rating (0-100) ([16]; 500 g al/ha): 50
- CORN crop damage rating (0-100) ([17]; 63 g al/ha): 20
- CORN crop damage rating (0-100) ([17]; 500 g al/ha): 95
- AMARE phytotoxicity rating (0-100) ([18]; 63 g al/ha): 100
- AMARE phytotoxicity rating (0-100) ([18]; 500 g al/ha): 100
- SETVI phytotoxicity rating (0-100) ([19]; 63 g al/ha): 30
- SETVI phytotoxicity rating (0-100) ([19]; 500 g al/ha): 60
- ECHCG phytotoxicity rating (0-100) ([20]; 63 g al/ha): 100
- ECHCG phytotoxicity rating (0-100) ([20]; 500 g al/ha): 100
- SORHA phytotoxicity rating (0-100) ([21]; 63 g al/ha): 90
- SORHA phytotoxicity rating (0-100) ([21]; 500 g al/ha): 99
- CHEAL phytotoxicity rating (0-100) ([22]; 63 g al/ha): 100
- CHEAL phytotoxicity rating (0-100) ([22]; 500 g al/ha): 100
- ABUTH phytotoxicity rating (0-100) ([23]; 63 g al/ha): 100
- ABUTH phytotoxicity rating (0-100) ([23]; 500 g al/ha): 100
- DIGSA phytotoxicity rating (0-100) ([24]; 63 g al/ha): 50
- DIGSA phytotoxicity rating (0-100) ([24]; 500 g al/ha): 90
- IPOHE phytotoxicity rating (0-100) ([25]; 63 g al/ha): 100
- IPOHE phytotoxicity rating (0-100) ([25]; 500 g al/ha): 100

From patent publication US6479435B1, “Diaryl ethers and processes for their preparation and herbicidal and desiccant compositions containing them” (ISK Americas Incorporated, priority 1997, dated 2002)
